Test results published in patent US10703733B2, “MCL-1 inhibitors” (Gilead Sciences, Inc., priority 2018, dated 2020).
Like-named read-outs stand apart in the source and are kept apart here.

Tests used:
[1] = system: SKBR3 cells; assay: SKBR3 Cell Viability Assay (CellTiter Glo); assay type: cell-based; conditions: CellTiter Glo luminescence, read-out: MCL-1 CV SKBR3 EC50
Method in brief: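 Viability read as CellTiter Glo luminescence after 72 h of compound exposure at 37° C./5% CO2, using 6,000 SKBR3 cells per well in McCoy 5A with 10% FBS. Percent inhibition scaled between DMSO wells and 10 μM puromycin wells.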

[2] = target: MCL-1/Bim interaction (recombinant human MCL-1 protein, residues 171-327; biotinylated human Bim peptide, residues 51-76) (Homo sapiens (Human), UniProt Q07820); assay: MCL-1/Bim Binding AlphaLISA Assay; conditions: 0.0625 nM 6xHis-Mcl-1 (171-327), 0.0625 nM biotinylated-Bim peptide
Method in brief: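 Compounds first sat 1 h with MCL-1 (171-327, 0.0625 nM), followed by 2 h with biotin-Bim 51-76 (0.0625 nM), then sequential 1 h anti-His acceptor and streptavidin donor bead steps; buffer Hepes pH 7.5 with NaCl, Brij 35, DTT, BSA. AlphaScreen signal converted to % inhibition using DMSO (negative) and protein/peptide-free (positive) controls.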

MCL-1/Bim interaction (recombinant human MCL-1 protein, residues 171-327; biotinylated human Bim peptide, residues 51-76), sequence (Q07820 171-327): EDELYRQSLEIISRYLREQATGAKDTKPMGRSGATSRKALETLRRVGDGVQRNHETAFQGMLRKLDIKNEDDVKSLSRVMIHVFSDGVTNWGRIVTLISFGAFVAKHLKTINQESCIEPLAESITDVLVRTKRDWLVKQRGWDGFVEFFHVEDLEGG

| SMILES | EC50 ([1]; Homo sapiens, SK-BR-3, 72 h) [nM] | IC50 [2] [nM] | EC50 ([1]; 72 hours) [nM] |
| --- | --- | --- | --- |
| CO[C@H]1/C=C/C[C@H](C)C[S@@](=O)(NC(=O)N[C@@H]2C[C@H]2F)=NC(=O)c2ccc3c(c2)N(C[C@@H]2CC[C@H]21)C[C@@]1(CCCc2cc(Cl)ccc21)CO3 [Example 364] | 259 | 0.064 |  |
| CO[C@H]1/C=C/C[C@H](C)C[S@@](=O)(NC(=O)c2cc(CN3CCN4CCOC[C@@H]4C3)n(C)c2)=NC(=O)c2ccc3c(c2)N(C[C@@H]2CC[C@H]21)C[C@@]1(CCCc2cc(Cl)ccc21)CO3 [Example 238] | 23.4 | 0.033 |  |
| COc1cn(C)nc1C(=O)O[C@H]1/C=C/[C@H](OC)[C@@H]2CC[C@H]2CN2C[C@@]3(CCCc4cc(Cl)ccc43)COc3ccc(cc32)C(=O)N=[S@](=O)(NC(=O)c2cn(C)nc2OC)CC1 [Example 391] |  | 0.702 | 4560 |
| COc1nn(C)cc1C(=O)N[S@@]1(=O)=NC(=O)c2ccc3c(c2)N(C[C@@H]2CC[C@H]2[C@@H](OC)/C=C/[C@H](O)[C@H](C)[C@H]1C)C[C@@]1(CCCc2cc(Cl)ccc21)CO3 [Example 374] | 47.5 | 0.058 |  |
| CO[C@H]1/C=C/C[C@H](C)C[S@@](=O)(NC(=O)[C@H]2C[C@H](OC)C2)=NC(=O)c2ccc3c(c2)N(C[C@@H]2CC[C@H]21)C[C@@]1(CCCc2cc(Cl)ccc21)CO3 [Example 128] | 96.4 | 0.068 |  |
| CO[C@H]1/C=C/C[C@H](C)C[S@@](=O)(NC(=O)N2CCN(CC#N)CC2)=NC(=O)c2ccc3c(c2)N(C[C@@H]2CC[C@H]21)C[C@@]1(CCCc2cc(Cl)ccc21)CO3 [Example 270] | 61.7 | 0.041 |  |
| CO[C@H]1/C=C/CCC[S@@](=O)(NC(=O)CCC(F)(F)F)=NC(=O)c2ccc3c(c2)N(C[C@@H]2CC[C@H]21)C[C@@]1(CCCc2cc(Cl)ccc21)CO3 [Example 94] | 902 | 0.9 |  |
| CCC1CN(C(=O)N[S@@]2(=O)=NC(=O)c3ccc4c(c3)N(C[C@@H]3CC[C@H]3[C@@H](OC)/C=C/C[C@H](C)C2)C[C@@]2(CCCc3cc(Cl)ccc32)CO4)C1 [Example 242] | 84 | 0.074 |  |
| CO[C@H]1/C=C/CCC[S@@](=O)(NC(=O)CCC2CCCC2)=NC(=O)c2ccc3c(c2)N(C[C@@H]2CC[C@H]21)C[C@@]1(CCCc2cc(Cl)ccc21)CO3 [Example 82] | 2320 | 1.1 |  |
| CO[C@H]1/C=C/C[C@H](C)C[S@@](=O)(NC(=O)N[C@H]2C[C@@H]2c2cnn(C)c2)=NC(=O)c2ccc3c(c2)N(C[C@@H]2CC[C@H]21)C[C@@]1(CCCc2cc(Cl)ccc21)CO3 (single isomer, unassigned) [Example 184] |  | 0.108 | 47.2 |
| CO[C@H]1/C=C/C[C@H](C)C[S@@](=O)(NC(=O)N[C@@H]2[C@@H]3COC[C@@H]32)=NC(=O)c2ccc3c(c2)N(C[C@@H]2CC[C@H]21)C[C@@]1(CCCc2cc(Cl)ccc21)CO3 [Example 449] | 147 | 0.131 |  |
| CO[C@H]1/C=C/C[C@H](C)C[S@@](=O)(NC(=O)c2cc3c([nH]2)CCOC3)=NC(=O)c2ccc3c(c2)N(C[C@@H]2CC[C@H]21)C[C@@]1(CCCc2cc(Cl)ccc21)CO3 [Example 158] | 47.4 | 0.135 |  |
| COc1nn(C)cc1C(=O)N[S@@]1(=O)=NC(=O)c2ccc3c(c2)N(C[C@@H]2CC[C@H]2[C@@H](OC)/C=C/C[C@H](C)[C@H]1C)C[C@@]1(CCCc2cc(Cl)ccc21)CO3 [Example 188] | 78.3 | 0.069 |  |
| CC[C@@H]1CC/C=C/[C@H](OC)[C@@H]2CC[C@H]2CN2C[C@@]3(CCCc4cc(Cl)ccc43)COc3ccc(cc32)C(=O)N=[S@@]1(=O)NC(=O)CCc1ccnn1C [Example 70] |  | 0.2 | 374 |
| CO[C@H]1/C=C/C[C@H](C)C[S@@](=O)(NC(=O)c2cnn(C)c2)=NC(=O)c2ccc3c(c2)N(C[C@@H]2CC[C@H]21)C[C@@]1(CCCc2cc(Cl)ccc21)CO3 [Example 148] | 37.2 | 0.043 |  |
| CO[C@H]1/C=C/CCC[S@@](=O)(NC(=O)C[C@H](O)c2ccccc2)=NC(=O)c2ccc3c(c2)N(C[C@@H]2CC[C@H]21)C[C@@]1(CCCc2cc(Cl)ccc21)CO3 [Example 72] | 262 | 0.1 |  |
| CO[C@H]1/C=C/C[C@H](C)[C@@H](C)[S@@](=O)(NC(=O)CO[C@H]2CCOC[C@H]2F)=NC(=O)c2ccc3c(c2)N(C[C@@H]2CC[C@H]21)C[C@@]1(CCCc2cc(Cl)ccc21)CO3 [Example 133] | 130 | 0.051 |  |

| SMILES | EC50 ([1]; Homo sapiens, SK-BR-3, 72 h) [nM] | IC50 [2] [nM] | EC50 ([1]; 72 hours) [nM] |
| --- | --- | --- | --- |
| CO[C@H]1/C=C/CCC[S@@](=O)(NC(=O)NCc2ccncc2)=NC(=O)c2ccc3c(c2)N(C[C@@H]2CC[C@H]21)C[C@@]1(CCCc2cc(Cl)ccc21)CO3 [Example 79] | 3030 | 0.4 |  |
| CO[C@H]1/C=C/CCC[S@@](=O)(NC(=O)CCc2cc(C)nn2C)=NC(=O)c2ccc3c(c2)N(C[C@@H]2CC[C@H]21)C[C@@]1(CCCc2cc(Cl)ccc21)CO3 [Example 89] | 855 | 0.5 |  |
| COc1nn(C2CC2)cc1C(=O)N[S@@]1(=O)=NC(=O)c2ccc3c(c2)N(C[C@@H]2CC[C@H]2[C@@H](OC)/C=C/C[C@H](C)C1)C[C@@]1(CCCc2cc(Cl)ccc21)CO3 [Example 262] | 85.8 | 0.056 |  |
| CO[C@H]1/C=C/C[C@H](C)C[S@@](=O)(NC(=O)N[C@@H]2C[C@H]2C(F)F)=NC(=O)c2ccc3c(c2)N(C[C@@H]2CC[C@H]21)C[C@@]1(CCCc2cc(Cl)ccc21)CO3 [Example 310] | 230 | 0.074 |  |
| CCC(=O)N[S@]1(=O)=NC(=O)c2ccc3c(c2)N(C[C@@H]2CC[C@H]2[C@@H](OCCN2CCOCC2)/C=C/CCC1)C[C@@]1(CCCc2cc(Cl)ccc21)CO3 [Example 66] |  | 2.7 | 5830 |
| CO[C@H]1/C=C/C[C@H](C)C[S@@](=O)(NC(=O)[C@H]2C[C@@H]2c2cccnc2)=NC(=O)c2ccc3c(c2)N(C[C@@H]2CC[C@H]21)C[C@@]1(CCCc2cc(Cl)ccc21)CO3 [Example 426] | 316 | 0.091 |  |
| CO[C@H]1/C=C/CCC[S@@](=O)(NC(=O)CC(C)C)=NC(=O)c2ccc3c(c2)N(C[C@@H]2CC[C@H]21)C[C@@]1(CCCc2cc(Cl)ccc21)CO3 [Example 26] | 1690 | 1.8 |  |
| COC1CN(c2nn(C)cc2C(=O)N[S@@]2(=O)=NC(=O)c3ccc4c(c3)N(C[C@@H]3CC[C@H]3[C@@H](OC)/C=C/C[C@H](C)C2)C[C@@]2(CCCc3cc(Cl)ccc32)CO4)C1 [Example 379] | 1660 | 0.834 |  |
| CO[C@H]1/C=C/C[C@H](C)C[S@@](=O)(NC(=O)[C@H]2CCc3cnn(C)c3C2)=NC(=O)c2ccc3c(c2)N(C[C@@H]2CC[C@H]21)C[C@@]1(CCCc2cc(Cl)ccc21)CO3 (single isomer, unassigned) [Example 141] | 65.3 | 0.086 |  |
| CO[C@H]1/C=C/C[C@H](C)C[S@@](=O)(NC(=O)N[C@H]2C[C@](C)(OC)C2)=NC(=O)c2ccc3c(c2)N(C[C@@H]2CC[C@H]21)C[C@@]1(CCCc2cc(Cl)ccc21)CO3 [Example 192] | 39.7 | 0.054 |  |
| CO[C@H]1/C=C/C[C@H](C)C[S@@](=O)(NC(=O)c2cc(CN3CCOCC3)n(C)c2)=NC(=O)c2ccc3c(c2)N(C[C@@H]2CC[C@H]21)C[C@@]1(CCCc2cc(Cl)ccc21)CO3 [Example 308] | 16.1 | 0.031 |  |
| COc1ncc(C(=O)N[S@@]2(=O)=NC(=O)c3ccc4c(c3)N(C[C@@H]3CC[C@H]3[C@@H](OC)/C=C/C[C@H](C)C2)C[C@@]2(CCCc3cc(Cl)ccc32)CO4)cn1 [Example 273] | 81 | 0.077 |  |
| COC[C@H]1C[C@H]1NC(=O)N[S@@]1(=O)=NC(=O)c2ccc3c(c2)N(C[C@@H]2CC[C@H]2[C@@H](OC)/C=C/C[C@H](C)C1)C[C@@]1(CCCc2cc(Cl)ccc21)CO3 [Example 316] |  | 0.056 | 116 |
| CO[C@H]1/C=C/C[C@H](C)C[S@@](=O)(NC(=O)C2CC3(CCC3)C2)=NC(=O)c2ccc3c(c2)N(C[C@@H]2CC[C@H]21)C[C@@]1(CCCc2cc(Cl)ccc21)CO3 [Example 436] | 753 | 0.886 |  |
| COC[C@@H]1Cn2cc(C(=O)N[S@@]3(=O)=NC(=O)c4ccc5c(c4)N(C[C@@H]4CC[C@H]4[C@@H](O)/C=C/C[C@H](C)C3)C[C@@]3(CCCc4cc(Cl)ccc43)CO5)cc2CO1 [Example 326] | 52.6 | 0.076 |  |
| C[C@H]1C/C=C/[C@H](OCC2CC2)[C@@H]2CC[C@H]2CN2C[C@@]3(CCCc4cc(Cl)ccc43)COc3ccc(cc32)C(=O)N=[S@](=O)(NC(=O)c2cnn(C)c2)C1 [Example 410] | 146 | 0.194 |  |
